Data: ChEMBL document CHEMBL3044727, “Syntheses, spectral, crystallographic, antimicrobial, and antioxidant studies of few Mannich bases” (2012)

Key:
Format in all cases: functional
[1] = Antioxidant activity assessed as inhibition of linoleic acid peroxidation at 75 ug by FTC method
[2] = system: Radical scavenging activity; assay: Antioxidant activity assessed as DPPH radical scavenging activity at 50 ug
[3] = Antioxidant activity assessed as inhibition of linoleic acid peroxidation at 100 ug by FTC method
[4] = system: Radical scavenging activity; assay: Antioxidant activity assessed as DPPH radical scavenging activity at 25 ug
[5] = Antioxidant activity assessed as inhibition of linoleic acid peroxidation at 50 ug by FTC method
[6] = Antioxidant activity assessed as inhibition of linoleic acid peroxidation at 125 ug by FTC method
[7] = system: Radical scavenging activity; assay: Antioxidant activity assessed as DPPH radical scavenging activity at 100 ug
[8] = system: Radical scavenging activity; assay: Antioxidant activity assessed as DPPH radical scavenging activity at 75 ug
[9] = system: Radical scavenging activity; assay: Antioxidant activity assessed as DPPH radical scavenging activity at 125 ug
[10] = Antioxidant activity assessed as inhibition of linoleic acid peroxidation at 25 ug by FTC method
Aspergillus fumigatus [11] = assay: Antimicrobial activity against Aspergillus fumigatus MTCC 6594 at 60 ug after 48 hr by streak plate method; conditions: MTCC 6594, 48 h, read-out: IZ
Salmonella typhi [12] = assay: Antimicrobial activity against Salmonella enterica subsp. enterica serovar Typhi MTCC 3917 at 40 ug after 24 hr by streak plate method; conditions: MTCC 3917, 24 h, read-out: IZ
[13] = Antioxidant activity assessed as inhibition of linoleic acid peroxidation by FTC method
Aspergillus oryzae [14] = assay: Antimicrobial activity against Aspergillus oryzae MTCC 3782 at 40 ug after 48 hr by streak plate method; conditions: MTCC 3782, 48 h, read-out: IZ
Aspergillus oryzae [15] = assay: Antimicrobial activity against Aspergillus oryzae MTCC 3782 at 20 ug after 48 hr by streak plate method; conditions: MTCC 3782, 48 h, read-out: IZ
Bacillus subtilis [16] = assay: Antimicrobial activity against Bacillus subtilis MTCC 4905 at 60 ug after 24 hr by streak plate method; conditions: MTCC 4905, 24 h, read-out: IZ
Salmonella typhi [17] = assay: Antimicrobial activity against Salmonella enterica subsp. enterica serovar Typhi MTCC 3917 at 60 ug after 24 hr by streak plate method; conditions: MTCC 3917, 24 h, read-out: IZ
Escherichia coli [18] = assay: Antimicrobial activity against Escherichia coli MTCC 3261 at 40 ug after 24 hr by streak plate method; conditions: MTCC 3261, 24 h, read-out: IZ
Aspergillus oryzae [19] = assay: Antimicrobial activity against Aspergillus oryzae MTCC 3782 at 60 ug after 48 hr by streak plate method; conditions: MTCC 3782, 48 h, read-out: IZ
[20] = system: Radical scavenging activity; assay: Antioxidant activity assessed as DPPH radical scavenging activity
Escherichia coli [21] = assay: Antimicrobial activity against Escherichia coli MTCC 3261 at 60 ug after 24 hr by streak plate method; conditions: MTCC 3261, 24 h, read-out: IZ
Bacillus subtilis [22] = assay: Antimicrobial activity against Bacillus subtilis MTCC 4905 at 40 ug after 24 hr by streak plate method; conditions: MTCC 4905, 24 h, read-out: IZ
Salmonella typhi [23] = assay: Antimicrobial activity against Salmonella enterica subsp. enterica serovar Typhi MTCC 3917 at 20 ug after 24 hr by streak plate method; conditions: MTCC 3917, 24 h, read-out: IZ
Bacillus subtilis [24] = assay: Antimicrobial activity against Bacillus subtilis MTCC 4905 at 20 ug after 24 hr by streak plate method; conditions: MTCC 4905, 24 h, read-out: IZ
Escherichia coli [25] = assay: Antimicrobial activity against Escherichia coli MTCC 3261 at 20 ug after 24 hr by streak plate method; conditions: MTCC 3261, 24 h, read-out: IZ
Aspergillus fumigatus [26] = assay: Antimicrobial activity against Aspergillus fumigatus MTCC 6594 at 40 ug after 48 hr by streak plate method; conditions: MTCC 6594, 48 h, read-out: IZ
Aspergillus fumigatus [27] = assay: Antimicrobial activity against Aspergillus fumigatus MTCC 6594 at 20 ug after 48 hr by streak plate method; conditions: MTCC 6594, 48 h, read-out: IZ

O=C1O[C@H]([C@@H](O)CO)C(O)=C1O
inhibition [1]: 31.2%
Activity [2]: 54%
inhibition [3]: 35%
Activity [4]: 53%
inhibition [5]: 27%
inhibition [6]: 37%
Activity [7]: 58%
Activity [8]: 57%
Activity [9]: 59%
inhibition [10]: 27.2%

O=C1CCC(=O)N1C(Nc1ccccc1)c1ccccc1 (stereo unspecified)
zone of inhibition at 60 µg/disc (Aspergillus fumigatus [11]): 6 mm
inhibition [1]: 19%
zone of inhibition at 40 µg/disc (Salmonella typhi [12]): 6 mm
inhibition [13]: Dose-dependent effect
Activity [2]: 14%
inhibition [3]: 20%
Activity [4]: 9%
zone of inhibition at 40 µg/disc (Aspergillus oryzae [14]): 12 mm
inhibition [5]: 17%
inhibition [6]: 22%
zone of inhibition at 20 µg/disc (Aspergillus oryzae [15]): 3 mm
zone of inhibition at 60 µg/disc (Bacillus subtilis [16]): 17 mm
Activity [7]: 18%
zone of inhibition at 60 µg/disc (Salmonella typhi [17]): 11 mm
Activity [8]: 17%
zone of inhibition at 40 µg/disc (Escherichia coli [18]): 2 mm
zone of inhibition at 60 µg/disc (Aspergillus oryzae [19]): 15 mm
Activity [20]: Dose-dependent effect
zone of inhibition at 60 µg/disc (Escherichia coli [21]): 16 mm
Activity [9]: 25%
inhibition [10]: 16%
zone of inhibition at 40 µg/disc (Bacillus subtilis [22]): 10 mm

O=C1CCC(=O)N1CNc1ccccc1
inhibition [1]: 16%
Activity [2]: 14%
inhibition [3]: 19%
Activity [4]: 10%
inhibition [5]: 15%
inhibition [6]: 20%
Activity [7]: 20%
Activity [8]: 18%
Activity [9]: 23%
inhibition [10]: 12%

Oc1cc2ccccc2cc1Cn1cccc1
zone of inhibition at 20 µg/disc (Salmonella typhi [23]): 22 mm
zone of inhibition at 60 µg/disc (Aspergillus fumigatus [11]): 3 mm
inhibition [1]: 16.2%
zone of inhibition at 40 µg/disc (Salmonella typhi [12]): 22 mm
inhibition [13]: Dose-dependent effect
Activity [2]: 33%
inhibition [3]: 17%
Activity [4]: 32%
zone of inhibition at 40 µg/disc (Aspergillus oryzae [14]): 10 mm
inhibition [5]: 13%
inhibition [6]: 19%
zone of inhibition at 60 µg/disc (Bacillus subtilis [16]): 16 mm
Activity [7]: 36%
zone of inhibition at 60 µg/disc (Salmonella typhi [17]): 23 mm
Activity [8]: 35%
zone of inhibition at 40 µg/disc (Escherichia coli [18]): 4 mm
zone of inhibition at 60 µg/disc (Aspergillus oryzae [19]): 14 mm
Activity [20]: Dose-dependent effect
zone of inhibition at 60 µg/disc (Escherichia coli [21]): 14 mm
Activity [9]: 38%
inhibition [10]: 10%
zone of inhibition at 40 µg/disc (Bacillus subtilis [22]): 14 mm

CC1(C)S[C@@H]2[C@H](NC(=O)Cc3ccccc3)C(=O)N2[C@H]1C(=O)O [PENICILLIN G]
zone of inhibition at 20 µg/disc (Salmonella typhi [23]): 20 mm
zone of inhibition at 40 µg/disc (Salmonella typhi [12]): 24 mm
zone of inhibition at 20 µg/disc (Bacillus subtilis [24]): 25 mm
zone of inhibition at 60 µg/disc (Bacillus subtilis [16]): 26 mm
zone of inhibition at 60 µg/disc (Salmonella typhi [17]): 24 mm
zone of inhibition at 40 µg/disc (Escherichia coli [18]): 30 mm
zone of inhibition at 60 µg/disc (Escherichia coli [21]): 31 mm
zone of inhibition at 20 µg/disc (Escherichia coli [25]): 24 mm
zone of inhibition at 40 µg/disc (Bacillus subtilis [22]): 26 mm

CN[C@@H]1[C@H](O[C@H]2[C@H](O[C@H]3[C@H](O)[C@@H](O)[C@H](N=C(N)N)[C@@H](O)[C@@H]3N=C(N)N)O[C@@H](C)[C@]2(O)C=O)O[C@@H](CO)[C@H](O)[C@H]1O [STREPTOMYCIN]
zone of inhibition at 20 µg/disc (Salmonella typhi [23]): 36 mm
zone of inhibition at 40 µg/disc (Salmonella typhi [12]): 40 mm
zone of inhibition at 20 µg/disc (Bacillus subtilis [24]): 30 mm
zone of inhibition at 60 µg/disc (Bacillus subtilis [16]): 41 mm
zone of inhibition at 60 µg/disc (Salmonella typhi [17]): 40 mm
zone of inhibition at 40 µg/disc (Escherichia coli [18]): 39 mm
zone of inhibition at 60 µg/disc (Escherichia coli [21]): 45 mm
zone of inhibition at 20 µg/disc (Escherichia coli [25]): 31 mm
zone of inhibition at 40 µg/disc (Bacillus subtilis [22]): 33 mm

VITAMIN E
inhibition [1]: 27%
Activity [2]: 47%
inhibition [3]: 29%
Activity [4]: 45%
inhibition [5]: 26%
inhibition [6]: 33%
Activity [7]: 50%
Activity [8]: 49%
Activity [9]: 51%
inhibition [10]: 23%

O=C1CCC(=O)N1CNc1ccccn1
zone of inhibition at 60 µg/disc (Aspergillus fumigatus [11]): 13 mm
inhibition [1]: 19%
inhibition [13]: Dose-dependent effect
Activity [2]: 18%
zone of inhibition at 40 µg/disc (Aspergillus fumigatus [26]): 7 mm
inhibition [3]: 20%
Activity [4]: 17%
inhibition [5]: 19%
inhibition [6]: 21%
zone of inhibition at 60 µg/disc (Bacillus subtilis [16]): 8 mm
Activity [7]: 27%
Activity [8]: 22%
zone of inhibition at 40 µg/disc (Escherichia coli [18]): 7 mm
zone of inhibition at 60 µg/disc (Aspergillus oryzae [19]): 15 mm
Activity [20]: Dose-dependent effect
zone of inhibition at 60 µg/disc (Escherichia coli [21]): 12 mm
Activity [9]: 36%
inhibition [10]: 18%
zone of inhibition at 40 µg/disc (Bacillus subtilis [22]): 5 mm

O=C1CCC(=O)N1C(Nc1ccccn1)c1ccccc1 (stereo unspecified)
zone of inhibition at 60 µg/disc (Aspergillus fumigatus [11]): 3 mm
inhibition [1]: 18%
zone of inhibition at 40 µg/disc (Salmonella typhi [12]): 1 mm
inhibition [13]: Dose-dependent effect
Activity [2]: 19%
inhibition [3]: 19%
Activity [4]: 16%
zone of inhibition at 40 µg/disc (Aspergillus oryzae [14]): 10 mm
inhibition [5]: 17%
inhibition [6]: 21%
zone of inhibition at 20 µg/disc (Aspergillus oryzae [15]): 12 mm
zone of inhibition at 60 µg/disc (Bacillus subtilis [16]): 12 mm
Activity [7]: 23%
zone of inhibition at 60 µg/disc (Salmonella typhi [17]): 6 mm
Activity [8]: 20%
zone of inhibition at 40 µg/disc (Escherichia coli [18]): 4 mm
zone of inhibition at 60 µg/disc (Aspergillus oryzae [19]): 9 mm
Activity [20]: Dose-dependent effect
zone of inhibition at 60 µg/disc (Escherichia coli [21]): 7 mm
Activity [9]: 25%
inhibition [10]: 15%
zone of inhibition at 40 µg/disc (Bacillus subtilis [22]): 7 mm

O=C1c2ccccc2C(=O)N1CNc1ccccc1
zone of inhibition at 20 µg/disc (Salmonella typhi [23]): 3 mm
zone of inhibition at 60 µg/disc (Aspergillus fumigatus [11]): 2 mm
inhibition [1]: 15.6%
zone of inhibition at 40 µg/disc (Salmonella typhi [12]): 5 mm
inhibition [13]: Dose-dependent effect
Activity [2]: 19%
inhibition [3]: 15%
Activity [4]: 15%
zone of inhibition at 40 µg/disc (Aspergillus oryzae [14]): 7 mm
inhibition [5]: 13%
inhibition [6]: 16%
zone of inhibition at 20 µg/disc (Aspergillus oryzae [15]): 7 mm
zone of inhibition at 60 µg/disc (Bacillus subtilis [16]): 14 mm
Activity [7]: 22%
zone of inhibition at 60 µg/disc (Salmonella typhi [17]): 5 mm
Activity [8]: 20%
zone of inhibition at 40 µg/disc (Escherichia coli [18]): 3 mm
zone of inhibition at 60 µg/disc (Aspergillus oryzae [19]): 4 mm
Activity [20]: Dose-dependent effect
zone of inhibition at 60 µg/disc (Escherichia coli [21]): 8 mm
Activity [9]: 24%
inhibition [10]: 11%
zone of inhibition at 40 µg/disc (Bacillus subtilis [22]): 9 mm

C[C@@H]1[C@H](O)[C@@H](C)/C=C/C=C/C=C/C=C/C=C/C=C/C=C/[C@H](O[C@@H]2O[C@H](C)[C@@H](O)[C@H](N)[C@@H]2O)C[C@@H]2O[C@](O)(C[C@@H](O)C[C@@H](O)[C@H](O)CC[C@@H](O)C[C@@H](O)CC(=O)O[C@H]1C)C[C@H](O)[C@H]2C(=O)O [AMPHOTERICIN B]
zone of inhibition at 60 µg/disc (Aspergillus fumigatus [11]): 30 mm
zone of inhibition at 40 µg/disc (Aspergillus fumigatus [26]): 24 mm
zone of inhibition at 20 µg/disc (Aspergillus fumigatus [27]): 26 mm
zone of inhibition at 40 µg/disc (Aspergillus oryzae [14]): 12 mm
zone of inhibition at 20 µg/disc (Aspergillus oryzae [15]): 12 mm
zone of inhibition at 60 µg/disc (Aspergillus oryzae [19]): 16 mm

O=C(NC(c1ccccc1)c1cc2ccccc2cc1O)NC(c1ccccc1)c1cc2ccccc2cc1O (stereo unspecified)
zone of inhibition at 20 µg/disc (Salmonella typhi [23]): 20 mm
zone of inhibition at 60 µg/disc (Aspergillus fumigatus [11]): 11 mm
inhibition [1]: 18.3%
zone of inhibition at 40 µg/disc (Salmonella typhi [12]): 21 mm
inhibition [13]: Dose-dependent effect
Activity [2]: 27%
zone of inhibition at 40 µg/disc (Aspergillus fumigatus [26]): 6 mm
inhibition [3]: 19%
Activity [4]: 28%
zone of inhibition at 40 µg/disc (Aspergillus oryzae [14]): 8 mm
inhibition [5]: 17%
inhibition [6]: 24%
zone of inhibition at 20 µg/disc (Bacillus subtilis [24]): 4 mm
zone of inhibition at 60 µg/disc (Bacillus subtilis [16]): 3 mm
Activity [7]: 37%
zone of inhibition at 60 µg/disc (Salmonella typhi [17]): 23 mm
Activity [8]: 35%
zone of inhibition at 40 µg/disc (Escherichia coli [18]): 8 mm
zone of inhibition at 60 µg/disc (Aspergillus oryzae [19]): 12 mm
Activity [20]: Dose-dependent effect
zone of inhibition at 60 µg/disc (Escherichia coli [21]): 9 mm
Activity [9]: 40%
inhibition [10]: 17%
zone of inhibition at 40 µg/disc (Bacillus subtilis [22]): 4 mm
